What all share (assay type): functional
Assay [1] has as its target T1, Protein RecA (Mycobacterium tuberculosis, UniProt P9WHJ3).
T1 sequence (P9WHJ3 whole entry): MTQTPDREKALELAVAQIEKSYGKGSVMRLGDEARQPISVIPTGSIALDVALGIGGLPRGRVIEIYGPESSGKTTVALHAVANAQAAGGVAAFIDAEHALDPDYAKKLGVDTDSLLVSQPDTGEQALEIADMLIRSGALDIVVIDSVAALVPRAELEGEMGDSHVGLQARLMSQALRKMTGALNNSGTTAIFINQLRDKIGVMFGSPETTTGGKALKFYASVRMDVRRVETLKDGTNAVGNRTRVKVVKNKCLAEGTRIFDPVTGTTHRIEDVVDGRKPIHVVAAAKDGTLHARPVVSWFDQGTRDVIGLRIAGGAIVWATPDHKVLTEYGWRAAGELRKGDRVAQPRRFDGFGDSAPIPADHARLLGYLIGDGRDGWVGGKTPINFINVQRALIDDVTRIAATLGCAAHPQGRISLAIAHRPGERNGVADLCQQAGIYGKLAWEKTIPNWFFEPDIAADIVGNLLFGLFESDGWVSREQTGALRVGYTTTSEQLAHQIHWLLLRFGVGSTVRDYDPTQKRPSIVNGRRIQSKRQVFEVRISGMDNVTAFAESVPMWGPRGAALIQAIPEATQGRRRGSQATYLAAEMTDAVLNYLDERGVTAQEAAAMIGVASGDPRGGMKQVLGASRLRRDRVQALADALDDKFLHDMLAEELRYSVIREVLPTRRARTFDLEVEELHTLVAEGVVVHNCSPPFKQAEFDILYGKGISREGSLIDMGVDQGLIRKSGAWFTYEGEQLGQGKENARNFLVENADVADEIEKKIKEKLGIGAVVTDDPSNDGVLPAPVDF
Description: Fluorescence Cell-Free Homogeneous Dose Retest to Identify Inhibitors of RecA-Intein Splicing Activity. [Related pubchem assays (depositor defined):AID2097, AID2223, AID489010, AID492950].

The target of assay [2] is T2, Sentrin-specific protease 7 (Homo sapiens, UniProt Q9BQF6).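 Note: Luminescence-based dose-response confirmation of ultra-high-throughput screening hits, measuring inhibition of SENP7.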
T2 sequence (Q9BQF6 whole entry): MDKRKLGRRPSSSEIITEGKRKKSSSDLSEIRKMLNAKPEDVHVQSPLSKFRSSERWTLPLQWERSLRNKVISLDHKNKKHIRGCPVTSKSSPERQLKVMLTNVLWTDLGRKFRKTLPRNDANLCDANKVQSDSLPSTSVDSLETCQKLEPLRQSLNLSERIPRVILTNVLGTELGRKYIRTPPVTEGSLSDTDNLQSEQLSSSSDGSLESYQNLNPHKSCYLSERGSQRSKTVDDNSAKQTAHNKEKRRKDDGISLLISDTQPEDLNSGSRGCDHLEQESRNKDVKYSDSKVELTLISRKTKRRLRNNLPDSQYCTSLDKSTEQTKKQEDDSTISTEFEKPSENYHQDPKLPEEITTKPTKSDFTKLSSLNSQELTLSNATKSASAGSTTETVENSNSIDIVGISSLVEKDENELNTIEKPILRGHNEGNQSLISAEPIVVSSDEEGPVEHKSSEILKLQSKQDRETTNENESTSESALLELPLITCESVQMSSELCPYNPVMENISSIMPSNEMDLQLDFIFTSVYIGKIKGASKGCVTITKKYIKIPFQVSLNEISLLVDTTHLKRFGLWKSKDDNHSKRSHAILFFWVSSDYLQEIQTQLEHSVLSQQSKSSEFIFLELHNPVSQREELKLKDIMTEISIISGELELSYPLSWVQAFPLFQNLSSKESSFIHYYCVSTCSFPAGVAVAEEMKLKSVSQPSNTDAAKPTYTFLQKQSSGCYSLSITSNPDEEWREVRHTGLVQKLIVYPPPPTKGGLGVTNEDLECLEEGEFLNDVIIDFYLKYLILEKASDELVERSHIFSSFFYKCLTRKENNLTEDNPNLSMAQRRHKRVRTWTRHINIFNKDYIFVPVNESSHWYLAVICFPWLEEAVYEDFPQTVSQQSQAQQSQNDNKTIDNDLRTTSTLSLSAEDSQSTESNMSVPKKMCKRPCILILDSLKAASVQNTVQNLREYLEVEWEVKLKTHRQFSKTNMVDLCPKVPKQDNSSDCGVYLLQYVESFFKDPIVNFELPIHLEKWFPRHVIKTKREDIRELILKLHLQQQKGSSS

Assay [3] addresses T3, Replicative DNA helicase DnaB (Mycobacterium tuberculosis, UniProt P9WMR3).
T3 sequence (P9WMR3 whole entry): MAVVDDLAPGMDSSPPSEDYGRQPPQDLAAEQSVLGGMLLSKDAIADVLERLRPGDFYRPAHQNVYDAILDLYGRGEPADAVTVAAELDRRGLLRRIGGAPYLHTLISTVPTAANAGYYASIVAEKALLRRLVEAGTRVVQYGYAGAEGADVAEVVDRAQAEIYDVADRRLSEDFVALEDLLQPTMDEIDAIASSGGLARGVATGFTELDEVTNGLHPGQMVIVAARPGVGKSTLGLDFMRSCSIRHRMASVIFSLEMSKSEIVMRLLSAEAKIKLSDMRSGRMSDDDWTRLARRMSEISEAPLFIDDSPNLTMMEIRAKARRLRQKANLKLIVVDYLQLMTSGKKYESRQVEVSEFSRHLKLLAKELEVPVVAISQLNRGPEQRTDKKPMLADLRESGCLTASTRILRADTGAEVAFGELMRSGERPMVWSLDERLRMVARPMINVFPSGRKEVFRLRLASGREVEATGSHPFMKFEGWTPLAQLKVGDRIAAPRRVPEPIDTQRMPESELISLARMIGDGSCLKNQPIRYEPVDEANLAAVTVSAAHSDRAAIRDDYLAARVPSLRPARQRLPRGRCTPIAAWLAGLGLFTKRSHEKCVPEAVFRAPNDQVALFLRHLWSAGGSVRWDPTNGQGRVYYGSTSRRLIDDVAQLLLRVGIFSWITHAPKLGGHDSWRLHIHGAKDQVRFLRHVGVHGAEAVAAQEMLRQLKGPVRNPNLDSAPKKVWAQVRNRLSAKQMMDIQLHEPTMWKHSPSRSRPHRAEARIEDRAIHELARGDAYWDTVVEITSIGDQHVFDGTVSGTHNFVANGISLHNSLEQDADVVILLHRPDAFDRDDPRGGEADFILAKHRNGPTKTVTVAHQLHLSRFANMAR
The assay is described as follows: DnaB intein splicing inhibitors, dose response, biochemical, cell-free fluorescence (AID 449749).

Each structure is given as a SMILES string. The source made the active and inactive calls.

As for `COc1cc2c(cc1OC)-c1c(OC)c(OC)cc3c1[C@H](C2)N(C)CC3`, in assay [1], the EC50 is 4.91 µM (active). Also, in assay [2], the IC50 is 7.64 µM (active). Further, the concentration at half-maximal activity (AC50) in assay [3] was 3.6 µM (active).
For `O=C1C(Cl)=C(N2CCC(C(=O)O)CC2)C(=O)c2ccccc21`, in that order: 5.78 µM (active), 29.1 µM (active) and 19.3 µM (active).
Consider `COC1=C(c2ccccc2)C(=O)c2ccccc2C1=O`, for which, in assay [1], the EC50 was 13.3 µM (active). Moreover, the AC50 in assay [3] is 13.4 µM (active).
